# From patent US20070173787A1, “Thin-film nitinol based drug eluting stent” (priority 2005, published 2007)
# Tests used:
# [1] = In vivo release kinetics from stent coatings in porcine pharmacokinetics studies; details: after eight (8) days of implantation; single layer sirolimus/cilostazol EVA/BMA coating with 100 μg BMA overcoat (FIG. 86), FIG. 84
# From the text: The topcoat is two hundred micro grams.
# The basecoat is applied to Bx Velocity® stents and implanted into Yorkshire pigs.
# Another critical parameter for the performance of the thrombus resistance of a device coated with cilostazol is the duration of the drug release from the coating. This is of particular significance in the two weeks after device implantation. […] The purpose of the porcine PK study is to assess the local pharmacokinetics of a drug eluting stent at a given implantation time. Normally three stents are implanted in three different coronary arteries in a pig for a given time point and then retrieved for total drug recovery analysis. The stents are retrieved at predetermined time points; namely, 1, 3 and 8 days. The stents are extracted and the total amount of drug remaining on the stents is determined by analysis utilizing HPLC (high performance liquid chromatography) for total drug amount. The difference between the original amount of drug on the stent and the amount of drug retrieved at a given time represents the amount of drug released in that period. The continuous release of drug into surrounding arterial tissue is what prevents the neointimal growth and restenosis in the coronary artery. A normal plot represents the percentage of total drug released (%, y-axis) vs. time of implantation (day, x-axis). […] In this exemplary configuration, the stent 8600 is coated with two layers. The first layer 8602 comprises a combination of sirolimus, cilostazol and a copolymer matrix of EVA/BMA. The second layer or diffusion overcoat 8604 comprises only BMA. More specifically, in this embodiment, the first layer 8602 comprises a combination of sirolimus and cilastazol that is forty-five (45) percent by weight of the total weight of the first layer 8602 and an EVA/BMA copolymer matrix that is fifty-five (55) percent by weight of the total weight of the first layer 8602. The diffusion overcoat comprises one hundred (100 μg) micrograms of BMA.
# Pigs are an established animal species for intravascular stent studies and accepted for such studies by the appropriate regulatory agencies. This in vivo study utilized male pigs of the species Sus Scrofa and strain Yoorkshire pigs. S.M.A.R.T.™ stents, available from Cordis Corporation, were placed into the iliac and femoral arteries, PALMAZ® GENESIS™ stents, available from Cordis Corporation, were placed in the renal arteries and CYPHER™ stents, available from Cordis Corporation, were placed in the coronary arteries.
# [2] = test system: platelet deposition and thrombus formation on the stent surface; experiment: In vitro bovine blood loop model (In 111 labeled platelets); details: FIG. 83
# From the text: The anti-thrombotic efficacy of the above-described three configurations is illustrated in FIG. 83. FIG. 83 illustrates the anti-thrombotic properties of the sirolimus/cilostazol combination coatings described above in an in vitro bovine blood loop model. In the in vitro bovine blood loop model, fresh bovine blood is heparinized to adjust for acute clotting time (ACT) of about two hundred (200) seconds. The platelet content in the blood is labeled through the use of Indium 111. In the study, a stent is deployed in a silicone tube, which is part of a closed loop system for blood circulation. The heparinzed blood is circulated through the closed loop system by means of a circulating pump. Blood clots and thrombus builds up on a stent surface over time and reduces the flow rate of blood through the stented loop. […] The control drug eluting stent is the Cypher® sirolimus eluting coronary stent available from Cordis Corporation. Bar 8304 is a stent coated with heparin and is available from Cordis Corporation under the […]® on the Bx Velocity® coronary stent trademark. Bar 8306 is a stent configured as set forth with respect to the architecture illustrated in FIG. 76. Bar 8308 is a stent configured as set forth with respect to the architecture illustrated in FIG. 80. Bar 8310 is a stent configured as set forth with respect to the architecture illustrated in FIG. 82.
# [3] = test system: human coronary artery smooth muscle cell; details: concentrations up to 30,000.00 nanomolar, FIG. 69
# From the text: In vitro cytotoxicity tests or assays may be utilized to determine if drugs, agents and/or compounds are potentially toxic and the level of toxicity. Essentially, in vitro cytotoxicity assays determine acute necrotic effects by a drug causing direct cellular damage. The idea behind these assays is that toxic chemicals affect basic functions of cells which are common to all cells. […] There are a number of different assays that may be utilized. In the present invention, the cytotoxicity assay utilized is based upon the measurement of cellular metabolic activity. A reduction in metabolic activity is an indication of cellular damage. Tests that can measure metabolic function measure cellular ATP levels or mitochondrial activity via MTS metabolism. FIG. 69 is a graphical representation of the results of an MTS assay of Panzem®.
# [4] = test system: human coronary artery smooth muscle cells; experiment: Anti-proliferative activity in synchronized cultured human coronary artery smooth muscle cells stimulated with two percent fetal bovine serum; assay type: cell-based
# From the text: The multiple curves represent various concentrations of topotecan ranging from zero to three hundred nanomolar concentrations.
# The multiple curves represent various concentrations of etoposide ranging from zero to eight hundred nanomolar concentrations.
# The multiple curves represent various concentrations of Panzem® ranging from zero to 100 micromolar concentrations.
smiles,measurement,setting,value
"O=C1CCc2cc(OCCCCc3nnnn3C3CCCCC3)ccc2N1 [cilostazol, 6[4-(1-cyclohexyl-1H-tetrazol-5-yl)-butoxy]-3,4-dihydro-2-(1H)-quinolinone]",drug remaining in the drug coating,[1],~80%
same,thrombus formation,[2],significantly reduces thrombus formation
"COc1cc2c(cc1O)CC[C@@H]1[C@@H]2CC[C@]2(C)[C@@H](O)CC[C@@H]12 [Panzem®, 2-methoxyestradiol]","cytotoxicity, MTS assay (cell survival)",[3],do not reduce human coronary artery smooth muscle cell survival
same,anti-proliferative activity,[4]; FIG. 66,extremely effective inhibitor of human coronary artery smooth muscle cell proliferation in vitro
same,effect of addition on the anti-proliferative rapamycin dose response curve,"[4]; topotecan to 300 nanomolar (FIG. 64), etoposide to eight hundred nanomolar (FIG. 65), Panzem to 100 micromolar (FIG. 68)",increases the percent of inhibition of rapamycin alone
